The test system of assay [1] is DK100 (DNA, duplex) CGCGGGCCCGCG
Put plainly: native ESI-MS. The settings on record: 100 mM ammonium acetate (NH4+), no K+, apparent, 10 μM DNA, 20 μM ligand, 4 °C incubation.

Assay [2] has as its system Htel-FT (human telomeric DNA G4). The assay is described as follows: FRET melting assay, Htel-FT. The format is binding. Conditions: ligand 1 μM, DNA 0.2 μM. The procedure: (§1) Doubly labelled oligonucleotides with fluorescein and TAMRA were purchased lyophilized and RP-cartridge purified from Eurogentec (Kanaka Eurogentec, Seraing, Belgium). FRET melting experiments were run on Stratagene Mx3005P real-time PCR equipment in 96-well plates on the DNA sequences listed Table 1. Experiments were performed in 10 mM lithium cacodylate buffer (pH 7.2) and 10 mM KCl and 90 mM LiCl as previously described.[45,46] The DNA concentration was 0.2 μM. The stabilization (ΔT1/2) induced by compounds was calculated as the difference between the Tm of the nucleic acid alone and that measured with a ligand concentration of 1 μM. Data are presented as averages of three independent measurements, each conducted in duplicate (λexc = 492 nm, λem = 516 nm, T interval = 25–95 °C, ramp: 25 °C for 5 min, then 1 °C min^−1, measurements every 1 °C, 8× magnification of the fluorescence signal). The G4 selectivity of the ligands with respect to the duplex was evaluated by determining the Tm values in the presence of 0, 3 or 10 μM of the duplex competitor ds26.
(§2) In this assay, we performed thermal denaturation experiments by heating and recording the fluorescence of DNA oligonucleotides doubly labelled with fluorescein and TAMRA fluorophores (Fig. 3 and S7). Ligand binding to the G4 stabilises the structure, resulting in an increase in the half-dissociation temperature of the structure (ΔT1/2). As a first approximation, the higher the ΔT1/2 (ΔT1/2 higher), the higher the affinity of the ligand for the target.[45]
(§3) The fluorescently labeled oligonucleotides were dissolved at a concentration of 0.2 μM in 10 mM lithium cacodylate buffer (pH 7.2) with 10 mM KCl and 90 mM LiCl. […] E) Radar plot representation that summarizes the FRET-melting results (ΔT1/2 (°C)) for each ligand in the presence of HIVpro1-FT (green), HIVpro2-FT (grey), LTR4-FT (bleu), and Htel-FT (red). Data are the results of at least three independent experiments in which each data point was performed in duplicate.

The target in a further assay is TG4T DNA G4 (parallel). The assay is described as follows: Native ESI-MS, TG4T. Conditions: 10 μM DNA, 20 μM ligand, 100 mM ammonium acetate. Format: binding. On the procedure:
Oligonucleotides were purchased lyophilized and RP-cartridge purified from Eurogentec (Kanaka Eurogentec, Seraing, Belgium), then buffer exchanged with ammonium acetate (5 M; Sigma-Aldrich, Saint-Quentin-Fallavier, France) using Amicon Ultra (3 K cut-off; Merck Millipore, Cork, Ireland). The concentrations of the initial stock solutions of DNA/RNA (∼1 mM) were measured by UV absorbance at 260 nm. Sample solutions were prepared by diluting the appropriate volume of oligonucleotide stock solutions to reach 10 μM of DNA/RNA and 20 μM of ligand, in 100 mM ammonium acetate. The solutions were incubated for 16 h at 4 °C before analysis by mass spectrometry. […] These parameters ensured a good signal intensity without disrupting noncovalent complexes, which was verified using d[G4T4G4]2 as a control. The presented spectra of all DNA/RNA used in this work (Fig. 5, S9 and S10) result from 8 min accumulations. The abundance of each species, M, M + 1L, M + 2L and M + 3L complexes, where M is a monomer oligonucleotide and L is a ligand, was determined from their peak area signals (A), from the sum of the −4, −5 and −6 charge states for DNA and from the sum of the −5, −6 and −7 charge states for RNA, assuming that their response factors are equal. The molar concentrations were then calculated knowing the total amount of oligonucleotide [M]tot: [drawing 1] [drawing 2] [drawing 3] [drawing 4] The concentration of the free ligand, [L]free, was determined from its total concentration [L]tot:[L]free = [L]tot − [M + 1L] − 2[M + 2L] − 3[M + 3L]Apparent consecutive dissociation constants (Kd1, Kd2 and Kd3) were calculated by using the following equations: [drawing 5] [drawing 6] [drawing 7]
We further analysed the formation of the DBA/G4 complexes by native electrospray ionization mass spectrometry (ESI-MS). We initially attempted to analyze DBA binding to the primary G4 targets from HIV-1 (HIVpro1, HIVpro2, LTR4 and rLTR4 RNA). […] These sequences span the major G4 topological classes and provide a representative assessment of DBA binding across diverse G4 architectures. We also included two DNA duplex controls (DK100 and DK66) to evaluate binding selectivity. This ESI-MS approach enables direct determination of binding stoichiometry, quantification of each species in solution, and calculation of dissociation constants (Kd) from the relative abundances of free and bound forms.[88,97]
In the ESI-MS conditions, the rLTR4 G4 (10 μM) forms a dimeric structure. […] Among the six DNA and RNA tested here (Fig. 5B, S9 and S10) only rLTR4 presented 1 : 3 G4/DBA complexes. In all cases but one, the 1 : 1 stoichiometry represents the major species in solution while for rLTR4 it is the 1 : 2 (green). […] For TG4T tetramolecular G4 or G4T4G4 bimolecular G4 only 1 : 1 and 1 : 2 complexes were detected (Fig. S9A and S10A). […] The weakest binding was obtained for the G4T4G4 antiparallel G4 and Htel sequence with Kd1s ranging from 11 μM for to 500 μM (Table 2).

Assay [3] deals with HIVpro2-FT (hybrid DNA G4). Put plainly: FRET melting assay, HIVpro2-FT. Format: binding, HIV-1. The settings on record: ligand 1 μM, DNA 0.2 μM. The procedure:
as §1, §2, §3

The next assay relates to HIV-1. Put plainly: microbe, parasite or virus in culture. Conditions: Human immunodeficiency virus 1, HeLaP4, read-out: IC50 (infectivity inhibition), native HIV-1, MOI 1, compound added 30 min before infection, 24 h, β-gal reporter.
In the next assay the test system is HeLa P4 cells. The assay is described as follows: Cell viability assay (CellTiter 96 AQueous One). The settings on record: read-out: EC50 (cell viability). Format: cell-based.
The mark [4] stands for this setting: HeLaP4, 24 h, 24 h treatment, formazan quantification.

Several values for one entry are separate records, joined by “and”; a condition that tells them apart may be missing. Identical values can stand only once. Like-named read-outs stand apart in the source and are kept apart here.

As to `COc1ccc(-[n+]2c3ccc4cc(OC)ccc4c3cc3c4ccc(OC)cc4ccc32)cc1` [DBA3], the Kd1 in assay [1] (site 1 of 2, almost no complex) came to 155.63 µM. In assay [2] (+10µM ds26), the “ΔT1/2 Htel” value is 14±0.1 °C. Further, the Kd was determined as 13.6 µM at TG4T DNA G4 (parallel) (read-out: Kd1 TG4T) and 52.2 µM on TG4T DNA G4 (parallel) (read-out: Kd2 TG4T). The “ΔT1/2 HIVpro2” value in assay [3] (+10µM ds26) is 3.8±0.6 °C; in assay [3] (No ds26) it was 3.5±0.2 °C and 3.5 °C. In addition, the IC50 – broadly, the concentration needed to halve the response being measured – with HIV-1 came out at 4.3 µM. The EC50 (usually the midpoint of the concentration-response curve) in the assay on HeLa P4 cells (setting [4]) was determined as 4.3 µM.

Regarding `COC(=O)c1ccc(-[n+]2c3ccc4cc(OC)ccc4c3cc3c4ccc(OC)cc4ccc32)cc1` [DBA2], the Kd1 in assay [1] (almost no complex detected) turned out to be 833.14 µM. Besides, the “ΔT1/2 Htel” value in assay [2] (+10µM ds26) stood at 12±0.6 °C. Moreover, the Kd turned out to be 6.09 µM on TG4T DNA G4 (parallel) (read-out: Kd1 TG4T) and 25.9 µM at TG4T DNA G4 (parallel) (read-out: Kd2 TG4T). The “ΔT1/2 HIVpro2” value in assay [3] (+10µM ds26) was 2.0±0.4 °C; in assay [3] (No ds26), 2.1±0.2 °C and 2.1 °C. The IC50 in the assay with HIV-1 was 3.1 µM. In addition, the EC50 in the assay with HeLa P4 cells (setting [4]) came out at 2.9 µM.

As to `COc1ccc2c(ccc3c2cc2c4ccc(OC)cc4ccc2[n+]3-c2ccc([N+](=O)[O-])cc2)c1` [DBA4], the Kd1 in assay [1] (site 1 of 2) turned out to be 38.42 µM. Moreover, the “ΔT1/2 Htel” value in assay [2] (+10µM ds26) was determined as 14±0.3 °C. Further, the Kd at TG4T DNA G4 (parallel) (read-out: Kd1 TG4T) stood at 5.42 µM; at TG4T DNA G4 (parallel) (read-out: Kd2 TG4T), 22.7 µM. Further, the “ΔT1/2 HIVpro2” value in assay [3] (+10µM ds26) was 3.0±0.8 °C; in assay [3] (No ds26) it was 3.8±0.3 °C and 3.8 °C. Also, the IC50 with HIV-1 came out at 1 µM. The EC50 in the assay on HeLa P4 cells (setting [4]) is roughly 15 µM; in the assay with HeLa P4 cells (HeLaP4, 24 h), 15.4 µM.

With `c1ccc(-[n+]2c3ccc4ccccc4c3cc3c4ccccc4ccc32)cc1` [DBA5], the Kd1 in assay [1] (site 1 of 2) amounted to 40.04 µM. In addition, the “ΔT1/2 Htel” value is 9.0±0.1 °C in assay [2] (+10µM ds26) and 12.2±0.1 °C in assay [2] (No ds26). For the same compound, the Kd on TG4T DNA G4 (parallel) (read-out: Kd1 TG4T) worked out at 21.6 µM; on TG4T DNA G4 (parallel) (read-out: Kd2 TG4T) it was 89.4 µM. The “ΔT1/2 HIVpro2” value in assay [3] (+10µM ds26) amounted to 1.7±0.9 °C; in assay [3] (No ds26) it was 1.9±0.1 °C. Further, the EC50 in the assay on HeLa P4 cells (24 h treatment, formazan quantification) was roughly 15 µM; in the assay with HeLa P4 cells (setting [4]), 16.7 µM.

For the compound `COc1ccc2c(ccc3c2cc2c4ccc(OC)cc4ccc2[n+]3-c2ccccc2)c1` [DBA1], the Kd1 in assay [1] (almost no complex detected) was determined as 1027.52 µM. Besides, the results for the “ΔT1/2 Htel” value in assay [2] (+10µM ds26) and in assay [2] (No ds26) were 13±0.5 °C and 17±0.2 °C, respectively. For the same compound, the Kd worked out at 14.7 µM on TG4T DNA G4 (parallel) (read-out: Kd1 TG4T) and 46 µM on TG4T DNA G4 (parallel) (read-out: Kd2 TG4T). Also, the figures for the “ΔT1/2 HIVpro2” value in assay [3] (+10µM ds26) and in assay [3] (No ds26) were 3.3±0.4 °C and 4.2±1.4 °C, respectively. Moreover, in the assay with HIV-1, the IC50 came to 0.9 µM. Also, the concentration giving a half-maximal response (EC50) in the assay with HeLa P4 cells (setting [4]) was determined as 5.2 µM.
